Data published in patent US9840510B1, “Pyrazolo[1,5-a]pyrimidinyl carboxamide compounds and their use in the treatment of medical disorders” (Lysosomal Therapeutics Inc., priority 2016, dated 2017).
Values after ≈ are worked out from the molar mass of the structure shown.

test: Compound solubility in water; type: physicochemical

Q: With `Cc1cc(-c2ccccc2C#N)nc2c(C(=O)N[C@H](C)C(F)(F)F)cnn12` [III-212] as the molecule, how does the solubility read?
A: Its solubility is 0.7 µg/mL (≈ 1.87 µM).

Q: For `Cc1cc(-c2ccccc2C#N)nc2c(C(=O)N[C@@H](C)C(F)(F)F)cnn12` [III-213], which solubility is on record?
A: The solubility was 0.6 µg/mL (≈ 1.61 µM).

Q: Which solubility does the source give for `Cc1cc(-c2cc(C)n3ncc(C(=O)NC(C4CC4)C(F)(F)F)c3n2)sn1` (stereo not shown) [III-214] here?
A: The solubility was 2.3 µg/mL (≈ 5.82 µM).

Q: With `Cc1cc(-c2cc(C)n3ncc(C(=O)N[C@H](C4CC4)C(F)(F)F)c3n2)sn1` [III-215] as the molecule, how does the solubility read?
A: The solubility was 0.3 µg/mL (≈ 0.759 µM).

Q: Which solubility does the source give for `Cc1cc(-c2cc(C)n3ncc(C(=O)N[C@@H](C4CC4)C(F)(F)F)c3n2)sn1` [III-216] here?
A: The solubility was 0.9 µg/mL (≈ 2.28 µM).

Q: For `Cc1cc(-c2cccc3ncoc23)nc2c(C(=O)N[C@@H](C)C3CC3)cnn12` [III-217], which solubility is on record?
A: Its solubility is 3.2 µg/mL (≈ 8.85 µM).

Q: For `Cc1cc(-c2cccc3ncoc23)nc2c(C(=O)NC(C)(C)C(F)(F)F)cnn12` [III-219], which solubility is on record?
A: Its solubility is 2.7 µg/mL (≈ 6.69 µM).

Q: Which solubility does the source give for `Cc1cc(-c2ccc3scnc3c2)nc2c(C(=O)NC(C)C(F)(F)F)cnn12` (stereo not shown) [III-220] here?
A: Its solubility is 0.1 µg/mL (≈ 0.247 µM).

Q: With `Cc1cc(-c2cccc3ncsc23)nc2c(C(=O)NC(C)C(F)(F)F)cnn12` (stereo not shown) [III-221] as the molecule, how does the solubility read?
A: Its solubility is 0.2 µg/mL (≈ 0.493 µM).

Q: Which solubility does the source give for `Cc1cc(-c2cccc3ncsc23)nc2c(C(=O)N[C@@H](C)C3CC3)cnn12` [III-222] here?
A: The solubility was 0.6 µg/mL (≈ 1.59 µM).

Q: With `Cc1cc(-c2cccc3ncoc23)nc2c(C(=O)NC(C)(C)C3CC3)cnn12` [III-223] as the molecule, how does the solubility read?
A: Its solubility is 0.2 µg/mL (≈ 0.533 µM).

Q: With `CCc1cc(N2CCN(C(C)C)C2=O)nc2c(C(=O)NC(C3CC3)C(F)(F)F)cnn12` (stereo not shown) [III-224] as the molecule, how does the solubility read?
A: The solubility was 1.2 µg/mL (≈ 2.74 µM).

Q: With `Cc1cc(N2CCN(C(C)C)C2=O)nc2c(C(=O)NC(C3CC3)C(F)(F)F)cnn12` (stereo not shown) [III-225] as the molecule, how does the solubility read?
A: Its solubility is 19.3 µg/mL (≈ 45.5 µM).

Q: With `CCc1cc(N2CCN(C(C)C)C2=O)nc2c(C(=O)NC(C)C(F)(F)F)cnn12` (stereo not shown) [III-226] as the molecule, how does the solubility read?
A: Its solubility is 5.9 µg/mL (≈ 14.3 µM).

Q: For `Cc1cc(N2CCN(C(C)C)C2=O)nc2c(C(=O)NC(C)C(F)(F)F)cnn12` (stereo not shown) [III-227], which solubility is on record?
A: The solubility was 9.4 µg/mL (≈ 23.6 µM).

Q: For `Cc1cc(N2CCNC2=O)nc2c(C(=O)NC(C3CC3)C(F)(F)F)cnn12` (stereo not shown) [III-228], which solubility is on record?
A: The solubility was 2.4 µg/mL (≈ 6.28 µM).

Q: With `CCc1cc(N2CCN(C(C)C)C2=O)nc2c(C(=O)NC(C)(C)C)cnn12` [III-229] as the molecule, how does the solubility read?
A: The solubility was 13.5 µg/mL (≈ 36.2 µM).

Q: For `Cc1cc(N2CCN(C(C)C)C2=O)nc2c(C(=O)NC(C)(C)C3CC3)cnn12` [III-230], which solubility is on record?
A: Its solubility is 2.6 µg/mL (≈ 6.76 µM).

Q: With `Cc1cc(N2CCN(C(C)C)C2=O)nc2c(C(=O)NC(C)(C)C(F)(F)F)cnn12` [III-231] as the molecule, how does the solubility read?
A: Its solubility is 3 µg/mL (≈ 7.27 µM).

Q: For `Cc1cc(N2CCN(C(C)C)C2=O)nc2c(C(=O)NC(C)(C)C)cnn12` [III-232], which solubility is on record?
A: The solubility was 23.7 µg/mL (≈ 66.1 µM).

Q: For `Cc1cc(N2CCN(CC(F)(F)F)C2=O)nc2c(C(=O)NC(C3CC3)C(F)(F)F)cnn12` (stereo not shown) [III-233], which solubility is on record?
A: Its solubility is 0.7 µg/mL (≈ 1.51 µM).

Q: Which solubility does the source give for `Cc1cc(-c2cccc(Cl)n2)nc2c(C(=O)NC(C)C(F)(F)F)cnn12` (stereo not shown) [III-234] here?
A: The solubility was 0.2 µg/mL (≈ 0.521 µM).

Q: With `Cc1cc(-c2cccc(Cl)n2)nc2c(C(=O)N[C@H](C)C(F)(F)F)cnn12` [III-235] as the molecule, how does the solubility read?
A: Its solubility is 6.4 µg/mL (≈ 16.7 µM).

Q: Which solubility does the source give for `Cc1cc(-c2cccc(Cl)n2)nc2c(C(=O)N[C@@H](C)C(F)(F)F)cnn12` [III-236] here?
A: Its solubility is 5.9 µg/mL (≈ 15.4 µM).

Q: For `Cc1cc(-c2cccc(Cl)n2)nc2c(C(=O)NC(C3CC3)C(F)(F)F)cnn12` (stereo not shown) [III-237], which solubility is on record?
A: The solubility was 0.05 µg/mL (≈ 0.122 µM).

Q: With `CCc1cc(N2CCOCC2)nc2c(C(=O)NC(C3CC3)C(F)(F)F)cnn12` (stereo not shown) [III-238] as the molecule, how does the solubility read?
A: Its solubility is 13.5 µg/mL (≈ 34 µM).

Q: For `Cc1cc(-c2ccon2)nc2c(C(=O)NC(C3CC3)C(F)(F)F)cnn12` (stereo not shown) [III-239], which solubility is on record?
A: Its solubility is 0.8 µg/mL (≈ 2.19 µM).

Q: With `Cc1oc(C#N)cc1-c1cc(C)n2ncc(C(=O)NC(C3CC3)C(F)(F)F)c2n1` (stereo not shown) [III-242] as the molecule, how does the solubility read?
A: The solubility was 3.2 µg/mL (≈ 7.93 µM).

Q: With `Cc1cc(C#N)c(-c2cc(C)n3ncc(C(=O)NC(C4CC4)C(F)(F)F)c3n2)o1` (stereo not shown) [III-245] as the molecule, how does the solubility read?
A: Its solubility is 0.008 µg/mL (≈ 0.0198 µM).

Q: With `Cc1ncc(-c2cc(C)n3ncc(C(=O)NC(C4CC4)C(F)(F)F)c3n2)o1` (stereo not shown) [III-246] as the molecule, how does the solubility read?
A: Its solubility is 3.1 µg/mL (≈ 8.17 µM).

Q: For `Cc1ncc(-c2cc(C)n3ncc(C(=O)N[C@H](C4CC4)C(F)(F)F)c3n2)o1` [III-247], which solubility is on record?
A: Its solubility is 0.6 µg/mL (≈ 1.58 µM).

Q: With `Cc1ncc(-c2cc(C)n3ncc(C(=O)N[C@@H](C4CC4)C(F)(F)F)c3n2)o1` [III-248] as the molecule, how does the solubility read?
A: Its solubility is 0.7 µg/mL (≈ 1.85 µM).

Q: With `Cc1nc(-c2cc(C)n3ncc(C(=O)NC(C4CC4)C(F)(F)F)c3n2)co1` (stereo not shown) [III-249] as the molecule, how does the solubility read?
A: Its solubility is 0.6 µg/mL (≈ 1.58 µM).

Q: Which solubility does the source give for `Cc1cc(-c2occc2C#N)nc2c(C(=O)NC(C3CC3)C(F)(F)F)cnn12` (stereo not shown) [III-250] here?
A: The solubility was 0.4 µg/mL (≈ 1.03 µM).

Q: For `Cc1nc(-c2cc(C)n3ncc(C(=O)NC(C)(C)C4CC4)c3n2)co1` [III-251], which solubility is on record?
A: Its solubility is 3.9 µg/mL (≈ 11.5 µM).

Q: For `Cc1ncc(-c2cc(C)n3ncc(C(=O)NC(C)(C)C4CC4)c3n2)o1` [III-252], which solubility is on record?
A: The solubility was 11 µg/mL (≈ 32.4 µM).

Q: Which solubility does the source give for `Cc1cnc(-c2cc(C)n3ncc(C(=O)NC(C4CC4)C(F)(F)F)c3n2)o1` (stereo not shown) [III-253] here?
A: The solubility was 0.7 µg/mL (≈ 1.85 µM).

Q: With `Cc1coc(-c2cc(C)n3ncc(C(=O)NC(C4CC4)C(F)(F)F)c3n2)n1` (stereo not shown) [III-254] as the molecule, how does the solubility read?
A: Its solubility is 0.6 µg/mL (≈ 1.58 µM).

Q: For `Cc1coc(-c2cc(C)n3ncc(C(=O)N[C@H](C4CC4)C(F)(F)F)c3n2)n1` [III-255], which solubility is on record?
A: The solubility was 1.6 µg/mL (≈ 4.22 µM).

Q: For `Cc1coc(-c2cc(C)n3ncc(C(=O)N[C@@H](C4CC4)C(F)(F)F)c3n2)n1` [III-256], which solubility is on record?
A: Its solubility is 0.5 µg/mL (≈ 1.32 µM).

Q: With `Cc1cc(N2CCCN(C(C)C)C2=O)nc2c(C(=O)NC(C3CC3)C(F)(F)F)cnn12` (stereo not shown) [III-257] as the molecule, how does the solubility read?
A: The solubility was 11.6 µg/mL (≈ 26.5 µM).

Q: With `Cc1cc(N2CCCN(C(C)C)C2=O)nc2c(C(=O)NC(C)(C)C)cnn12` [III-258] as the molecule, how does the solubility read?
A: Its solubility is 26.4 µg/mL (≈ 70.9 µM).

Q: Which solubility does the source give for `Cc1cc(N2CCCN(C(C)C)C2=O)nc2c(C(=O)NC(C)C(F)(F)F)cnn12` (stereo not shown) [III-259] here?
A: Its solubility is 25.8 µg/mL (≈ 62.6 µM).
